According to the NIST ThermoML archive (doi:10.1016/j.jct.2007.07.005):

Assay: xn = mol fraction of the nth substance listed
Settings: Fluid (supercritical or subcritical phases), vibrating tube

CCCCCO [pentan-1-ol] + O=C=O
Settings	mass density [kg/m3]
342.87 K, 20033 kPa, x2 = 0.4651	814.31
342.87 K, 21025 kPa, x2 = 0.4651	815.82
342.87 K, 21037 kPa, x2 = 0.3624	811.12
342.87 K, 21039 kPa, x2 = 0.7274	812.39
342.87 K, 21983 kPa, x2 = 0.4651	817.26
342.87 K, 21990 kPa, x2 = 0.3624	812.11
342.87 K, 22001 kPa, x2 = 0.7274	815.49
342.87 K, 23014 kPa, x2 = 0.4651	818.77
342.87 K, 23015 kPa, x2 = 0.7274	818.69
342.87 K, 23033 kPa, x2 = 0.3624	813.18
342.87 K, 24005 kPa, x2 = 0.3624	814.16
342.87 K, 24023 kPa, x2 = 0.4651	820.23
342.87 K, 24099 kPa, x2 = 0.7274	821.95
342.87 K, 25028 kPa, x2 = 0.3624	815.18
342.88 K, 3034 kPa, x2 = 0.0816	781.33
342.88 K, 4000 kPa, x2 = 0.0816	782.24
342.88 K, 4969 kPa, x2 = 0.0816	783.19
342.88 K, 5981 kPa, x2 = 0.0816	784.14
342.88 K, 7023 kPa, x2 = 0.0816	785.12
342.88 K, 8012 kPa, x2 = 0.0816	786.04
342.88 K, 9030 kPa, x2 = 0.0816	786.97
342.88 K, 10026 kPa, x2 = 0.0816	787.86
342.88 K, 10992 kPa, x2 = 0.0816	788.72
342.88 K, 11981 kPa, x2 = 0.0816	789.59
342.88 K, 13062 kPa, x2 = 0.0816	790.54
342.88 K, 14001 kPa, x2 = 0.9216	654.38
342.88 K, 14013 kPa, x2 = 0.0816	791.33
342.88 K, 15014 kPa, x2 = 0.9216	679.88
342.88 K, 15025 kPa, x2 = 0.0816	792.19
342.88 K, 15995 kPa, x2 = 0.0816	793.03
342.88 K, 16009 kPa, x2 = 0.9216	699.02
342.88 K, 16999 kPa, x2 = 0.0816	793.86
342.88 K, 17032 kPa, x2 = 0.9216	715.18
342.88 K, 18002 kPa, x2 = 0.9216	728.34
342.88 K, 18009 kPa, x2 = 0.0816	794.69
342.88 K, 19029 kPa, x2 = 0.0816	795.51
342.88 K, 19057 kPa, x2 = 0.9216	740.82
342.88 K, 19987 kPa, x2 = 0.0816	796.28
342.88 K, 19996 kPa, x2 = 0.9216	750.81
342.88 K, 21039 kPa, x2 = 0.0816	797.11
342.88 K, 21039 kPa, x2 = 0.9216	760.88
342.88 K, 21996 kPa, x2 = 0.0816	797.87
342.88 K, 22026 kPa, x2 = 0.9216	769.6
342.88 K, 22991 kPa, x2 = 0.0816	798.65
342.88 K, 24056 kPa, x2 = 0.0816	799.48
342.88 K, 25041 kPa, x2 = 0.0816	800.25
342.89 K, 14024 kPa, x2 = 0.8573	720.89
342.89 K, 15020 kPa, x2 = 0.8573	735.53
342.89 K, 16007 kPa, x2 = 0.8573	747
342.89 K, 17031 kPa, x2 = 0.8573	757.08
342.89 K, 18025 kPa, x2 = 0.8573	765.71
342.89 K, 19016 kPa, x2 = 0.8573	773.47
342.89 K, 20036 kPa, x2 = 0.8573	780.77
342.89 K, 21016 kPa, x2 = 0.8573	787.25
342.89 K, 21989 kPa, x2 = 0.8573	793.31
342.89 K, 23049 kPa, x2 = 0.8573	799.42
342.89 K, 24035 kPa, x2 = 0.8573	804.78
342.89 K, 24945 kPa, x2 = 0.8573	809.51
342.95 K, 13102 kPa, x2 = 0.6054	801.79
342.95 K, 14086 kPa, x2 = 0.6054	804.2
342.95 K, 15021 kPa, x2 = 0.6054	806.46
342.95 K, 16051 kPa, x2 = 0.6054	808.84
342.95 K, 17053 kPa, x2 = 0.6054	811.1
342.95 K, 18061 kPa, x2 = 0.6054	813.31
342.95 K, 19049 kPa, x2 = 0.6054	815.42
342.95 K, 20084 kPa, x2 = 0.6054	817.54
342.95 K, 21075 kPa, x2 = 0.6054	819.56
342.95 K, 22070 kPa, x2 = 0.6054	821.54
342.95 K, 23069 kPa, x2 = 0.6054	823.48
342.95 K, 24068 kPa, x2 = 0.6054	825.37
342.95 K, 25106 kPa, x2 = 0.6054	827.29
342.96 K, 7006 kPa, x2 = 0.1347	785.93
342.96 K, 8027 kPa, x2 = 0.1347	786.83
342.96 K, 9036 kPa, x2 = 0.1347	787.79
342.96 K, 10053 kPa, x2 = 0.1347	788.74
342.96 K, 11003 kPa, x2 = 0.1347	789.61
342.96 K, 12025 kPa, x2 = 0.1347	790.55
342.96 K, 13042 kPa, x2 = 0.1347	791.48
342.96 K, 14006 kPa, x2 = 0.1347	792.33
342.96 K, 15009 kPa, x2 = 0.1347	793.22
342.96 K, 16036 kPa, x2 = 0.1347	794.12
342.96 K, 17009 kPa, x2 = 0.1347	794.98
342.96 K, 18011 kPa, x2 = 0.1347	795.84
342.96 K, 19019 kPa, x2 = 0.1347	796.7
342.96 K, 20016 kPa, x2 = 0.1347	797.55
342.96 K, 20998 kPa, x2 = 0.1347	798.37
342.96 K, 22010 kPa, x2 = 0.1347	799.2
342.96 K, 23002 kPa, x2 = 0.1347	800.03
342.96 K, 24085 kPa, x2 = 0.1347	800.92
342.96 K, 25038 kPa, x2 = 0.1347	801.69
352.71 K, 508 kPa, x2 = 0	768.15
352.71 K, 1011 kPa, x2 = 0	768.66
352.71 K, 1995 kPa, x2 = 0	769.61
352.71 K, 3014 kPa, x2 = 0	770.57
352.71 K, 3998 kPa, x2 = 0	771.49
352.71 K, 5022 kPa, x2 = 0	772.45
352.71 K, 6012 kPa, x2 = 0	773.35
352.71 K, 7006 kPa, x2 = 0	774.26
352.71 K, 8024 kPa, x2 = 0	775.17
352.71 K, 9005 kPa, x2 = 0	776.05
352.71 K, 10016 kPa, x2 = 0	776.94
352.71 K, 11026 kPa, x2 = 0	777.81
352.71 K, 12001 kPa, x2 = 0	778.65
352.71 K, 13002 kPa, x2 = 0	779.5
352.71 K, 14026 kPa, x2 = 0	780.35
352.71 K, 15000 kPa, x2 = 0	781.18
352.71 K, 16005 kPa, x2 = 0	781.98
352.71 K, 17023 kPa, x2 = 0	782.81
352.71 K, 18003 kPa, x2 = 0	783.59
352.71 K, 19049 kPa, x2 = 0	784.43
352.71 K, 20035 kPa, x2 = 0	785.2
352.71 K, 21002 kPa, x2 = 0	785.96
352.71 K, 21995 kPa, x2 = 0	786.73
352.71 K, 23020 kPa, x2 = 0	787.52
352.71 K, 24045 kPa, x2 = 0	788.32
352.71 K, 25009 kPa, x2 = 0	789.05
352.73 K, 17393 kPa, x2 = 0.9757	574.15
352.73 K, 18036 kPa, x2 = 0.9757	591.88
352.73 K, 19032 kPa, x2 = 0.9757	616.27
352.73 K, 20013 kPa, x2 = 0.9757	637.17
352.73 K, 21057 kPa, x2 = 0.9757	656.66
352.73 K, 22011 kPa, x2 = 0.9757	672.48
352.73 K, 23064 kPa, x2 = 0.9757	688.28
352.73 K, 24053 kPa, x2 = 0.9757	701.67
